Measurements: US20180318280A1 (Salmon Pharma GmbH, priority 2017, published 2018)

Legend:
[1] = test system: S-phosphate, fractional phosphate elimination, FGF23; experiment: DBA/2 mice: S-phosphate, fractional phosphate elimination, FGF23; format: in vivo, mouse; conditions: for FGF23 / fractional phosphate elimination: DBA/2 mice
Source text: For this purpose, 5/6 nephrectomized DBA/2 mice were used as model for vascular calcification.

[2] = test system: serum phosphate; experiment: Phase II dose finding study (DONATO), patients on hemodialysis: serum phosphate; format: in vivo, human; conditions: for a 0.22603 mmol/l phosphate level reduction against compare group; dose response of modified release capsules, 4 weeks
Source text: Secondary outcome criteria included a comparison of the two different […] of nicotinamide by means of several measures of safety and efficacy.

[3] = biological target: GPR109A receptor (Homo sapiens, UniProt Q8TDS4); conditions: cited from earlier work
[4] = given in combination with the phosphate binder sevelamer; cited from earlier work

GPR109A receptor, sequence (Q8TDS4 whole entry): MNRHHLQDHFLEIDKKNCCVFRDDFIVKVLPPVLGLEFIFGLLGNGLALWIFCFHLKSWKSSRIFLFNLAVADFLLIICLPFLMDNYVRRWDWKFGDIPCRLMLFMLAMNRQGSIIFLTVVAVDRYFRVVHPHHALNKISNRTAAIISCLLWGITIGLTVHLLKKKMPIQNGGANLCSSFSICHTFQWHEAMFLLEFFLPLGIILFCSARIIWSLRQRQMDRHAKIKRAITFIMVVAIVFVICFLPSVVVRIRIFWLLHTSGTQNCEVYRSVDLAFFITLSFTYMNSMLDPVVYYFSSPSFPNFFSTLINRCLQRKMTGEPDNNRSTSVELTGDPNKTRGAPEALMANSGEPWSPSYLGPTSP

## O=C([O-])[O-].[Mg+2] [magnesium carbonate]
[1]
  FGF23: reduction
  fractional phosphate elimination: reduction

## NC(=O)c1cccnc1 [nicotinamide]
[2]
  minimum effective dose: 450 mg
[1]
  FGF23: reduction
  fractional phosphate elimination: reduction
[1]; only in healthy DBA/2 mice with high phosphate diet, NA in the drinking water
  S-phosphate: decrease
[3]
  binding to or effect on the GPR109A receptor: does not bind or otherwise affect
[4]
  treatment of hyperphosphatemia: ineffective
